In patent US20260234159A1, “SMALL MOLECULE TREATMENT OF FATTY LIVER DISEASE AND HCC” (SCANDIEDGE THERAPEUTICS AB, priority 2023, published 2026):

Tests used:
HSD fed rats = test: In vivo efficacy study in high sucrose diet (HSD) steatosis rats; settings: HSD plus 30 mg/kg seven days
Source text: In vivo efficacy studies. After 1-week acclimation period, rats were randomly separated into two groups: control group (n=5) and high sucrose group (n=20). The control group was fed with a standard diet while the others consumed high sucrose diet (HSD). Sucrose was purchased from Sigma Chemical Co. (St Louis, MO, USA) and supplied at the dose of 10% in the drink water for two weeks.
After 2 weeks, five rats in the HSD group were randomly sacrificed for conformation of NAFLD model. Then, the remaining rats in the HSD group were separated into three sub-groups (n=5): HSD group, HSD plus BX-912 group and HSD plus JNK-IN-5A group. BX-912 and JNK-IN-5A were dissolved in DMSO and were orally administrated using oral gavage for one week (30 mg/kg/day). The HSD group were treated with vehicle solution only.
At the end of the experiment, rats were sacrificed after being anesthetized. Blood samples were collected from the abdominal aorta and centrifuged at 8000 rpm for 15 min at 4° C. The plasma was separated and stored at −80° C. until further analysis. Other internal organs, including the heart, adipose tissues, liver, kidney, muscle, intestine (duodenum, ileum, jejunum), pancreas, colon and stomach were immediately removed and then snap frozen in liquid nitrogen and stored at −80° C.; the liver was also fixed in 10% formaldehyde for histopathological examination.
Histopathological examination. The liver tissues were fixed in 10% buffered formaldehyde solution. After fixation, the tissues were passed through graded alcohol and xylene series and embedded in paraffin blocks. 5 micrometer thick sections were taken serially from the paraffin blocks. Histopathological changes were evaluated by performing hematoxylin eosin staining on the sections taken. Sections were evaluated according to histopathological findings as none (−), mild (+), moderate (++) and severe (+++).
Immunohistochemical examination. After deparaffinization, the slides were immersed in antigen retrieval solution (pH 6.0) and heated in microwave for 15 min to unmask the antigens. The sections were then dipped in 3% H2O2 for 10 min to block endogenous peroxidase activity. Protein block was dropped onto the sections, washed with PBS for 10 min. Primary antibodies (8-OH-dG, Cat No: sc-66036, Diluent Ratio: 1/100, Santa Cruz) were prepared and applied according to the usage conditions. Expose mouse and rabbit specific HRP/DAB detection IHC kit were used as follows: sections were incubated with goat anti-mouse antibody, then with streptavidin peroxidase, and finally with 3,3′ diamino benzidine+chromogen. Slides were counter stained with hematoxylin. Immunoreactivity in the sections were graded as none (−), mild (+), moderate (++) and severe (+++).

p21 = test: Nuclear protein western blot, p21; format: cell-based, human; settings: 10 μM, 2 days
Description: HepG2 cells were seeded into a 6-well plate at 400,000 cells per well. After treatment with 10 μM of JNK-IN-5A and its derivatives for two days, lysates were harvested with CelLytic M (C2978, Sigma-Aldrich). 20 μg lysate was prepared with 2× Laemmli Sample Buffer (1610737, Biorad). SDS PAGE were performed using Mini-PROTEAN® TGX™ Precast Gels (Bio-Rad) and transferred using Trans-Blot® Turbo™ Transfer System (Bio-Rad). Primary antibody, PARP (95425, Cell signalling), Caspase 3 (ab32042, abcam), Bcl-2 (ab182858), STAT1 (HPA000982, Merk), PKL (06653, Sigma), PKM (4053S, Cell signalling), GAPDH (ab8245, abcam), P53 (ab32389, abcam), p21 (ab109199, abcam), p-S349 p62 (ab211324, abcam), p62 (ab109012, abcam), c-Myc (ab32072, abcam), GPX4 (ab125066, abcam), MMP9 (MA5-32705, Invitrogen), β-actin (ab8227, abcam), and α-tubulin (ab7291, abcam) were blotted overnight and Goat Anti-Rabbit HRP (ab205718) and goat anti-mouse IgG-HRP (sc2005, Santa Cruz Biotechnology, Inc.) were blotted for secondary antibody for one hour. ImageQuantTMLAS 500 (29-0050-63, GE) was used to detect protein bands.

HepG2 cells [1] = test: Autophagy assay; format: cell-based, human; settings: 10 μM, one day
Description: (§1) HepG2 cells were seeded into a 6-well plate at 400,000 cells per well. After treatment with the compounds at desired concentration and time, TMRE (ab113852, abcam), Autophagy (ab139484, abcam), ROS (ab113851, abcam), and Lipid peroxidation (ab243377, abcam) assay were performed according to manufacturer's instructions. Fluorescence images were taken using ZOE™ Fluorescent Cell Imager (Biorad) and ROI of fluorescence intensity was measured and calculated by Image J. For microplate reader florescence assay, 40,000 of HepG2 cells were seeded into a 96-well plate and triplicated. GFP (Ex480 nm, Em530 nm) and RFP (Ex549 nm, Em574 nm) were measured using a microplate reader (Hidex Sense Meta Plus).

HepG2 cells [2] = test: Lipid peroxidation assay; format: cell-based, human
Description: as §1

| SMILES | toxic effect on small intestine, large intestine, stomach, heart and muscle tissues (HSD fed rats) | degeneration in hepatocytes in liver tissues (HSD fed rats; HSD 3w severe) | degeneration in renal tubule epithelium (HSD fed rats; HSD 3w severe) | fattening in the parenchyma cells of pancreas tissues (HSD fed rats; HSD 3w severe) | steatosis in hepatocytes in liver tissues (HSD fed rats; HSD 3w severe) | 8-OH-dG expression in hepatocytes (HSD fed rats; HSD 3w strong) | p21 nuclear localization (p21) | autophagy GFP signals (HepG2 cells [1]) | GFP/RFP ratio (lipid peroxidation) (HepG2 cells [2]) |
| --- | --- | --- | --- | --- | --- | --- | --- | --- | --- |
| N#Cc1c(NC(=O)c2cccc3ccccc23)sc2c1CCCC2 [JNK-IN-5A, N-(3-cyano-4,5,6,7-tetrahydrobenzo[b]thiophen-2-yl)-1-naphthamide] | no toxic effect | mild | mild | mild | mild | significantly decreased | localized in the nucleus | significantly increased | – |
| N#Cc1c(NC(=O)c2cccc3ccccc23)sc2c1CCN(CC(=O)Nc1cccc(Br)c1)C2 [PKL-B171] | – | – | – | – | – | – | – | – | statistically significant increase |
